Reference: patent publication US9777039B2, “Somatostatin analogs and dimers thereof” (Ipsen Pharma S.A.S., priority 2012, dated 2017)
Read-outs that look alike come from different tables or passages of the source. Residues, ends and D or L forms follow the SMILES beside them.

Legend:
[1] = target: T1, hSSTR2 (Homo sapiens, UniProt P30874); assay: Intracellular calcium mobilization assay (FLIPR Calcium 4 assay kit); assay type: cell-based; settings: for Emax: maximal effect in percentage of the maximal effect of SRIF-14, read-out: hSSTR2 % Emax ± SEM
T1 construct: expressed in transfected cells
T1 sequence (P30874 whole entry): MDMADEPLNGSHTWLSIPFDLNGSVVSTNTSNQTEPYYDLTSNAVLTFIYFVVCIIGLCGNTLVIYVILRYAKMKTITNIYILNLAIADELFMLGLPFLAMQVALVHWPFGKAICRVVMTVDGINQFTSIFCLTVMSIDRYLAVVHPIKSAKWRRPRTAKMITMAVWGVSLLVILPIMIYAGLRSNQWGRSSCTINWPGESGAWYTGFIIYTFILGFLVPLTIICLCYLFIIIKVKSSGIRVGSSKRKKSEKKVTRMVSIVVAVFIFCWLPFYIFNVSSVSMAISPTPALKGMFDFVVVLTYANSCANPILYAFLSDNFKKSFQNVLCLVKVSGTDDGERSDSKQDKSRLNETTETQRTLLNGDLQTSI
Procedure: The ability of select compounds according to the present invention to activate hSSTR2 was determined by the intracellular calcium mobilization assay using FLIPR Calcium 4 assay kit (Molecular Devices).
Cells expressing hSSTR2 were plated in 384-well microplates in tissue culture media and incubated for 16-24 hours at 37° C. in a humidified atmosphere with 5% CO2. Medium was replaced by loading buffer containing Hank's buffered saline, 20 mM HEPES, 2.5 mM probenecid and Calcium 4 dye, and the plates were incubated at 37° C. for 60 minutes. Various concentrations of the test compounds were applied to the cells during the fluorescence measurement with excitation at 485 nm and emission at 525 nm using the Flexstation III microplate reader (Molecular Devices).
The half maximal effective concentrations (EC50) were calculated by fitting data to sigmoid dose-response curves using GraphPad Prism version 5.03 (GraphPad Software, San Diego, Calif., USA). % Emax values represent the maximal effect of the test compound in percentage of the maximal effect of SRIF-14.
Reference Compound No. A, whose chemical name and corresponding structure are provided in Table V, was synthesized and its ability to activated hSSTR2 was determined by the same intracellular calcium mobilization assays using FLIPR Calcium 4 assay kit (Molecular Devices) and under the same experimental conditions for the test compounds, as described hereinabove, and the results thereof are provided in Table VI.

[2] = target: T1, hSSTR2; assay: Somatostatin receptor radioligand binding assay, hSSTR2
Procedure: (§1) The affinities of a test compound for the human somatostatin receptors were determined by radioligand binding assays in CHO-K1 cells stably transfected with each of the somatostatin receptor subtypes, hSSTR1-5. The cDNA coding sequences of the hSSTR1 (GenBank accession No. NM_001049.1), hSSTR2 (GenBank accession No. XM_012697.1), hSSTR3 (GenBank accession No. XM_009963.1), hSSTR4 (GenBank accession No. NM_001052.1) and hSSTR5 (GenBank accession No. XM_012565.1) were subcloned into the mammalian expression vector pcDNA3.1 (Life Technologies). Clonal cell lines stably expressing each of the somatostatin receptors were obtained by transfection into CHO-K1 cells (ATCC) and subsequently selected with culture media containing 0.8 mg/mL of G418 (Life Technologies).
(§2) Membranes for in vitro receptor binding assays were obtained by the following procedures. CHO-K1 cells expressing one of the somatostatin receptors were homogenized in ice-cold buffer with 10 mM Tris-HCl, 5 mM EDTA, 3 mM EGTA, 1 mM phenylmethylsuphonyl fluoride, pH 7.6, using Polytron PT10-35GT (Kinematica) at 18,000 rpm for 30 seconds and centrifuged at 500×g for 10 minutes. The supernatant containing the plasma membranes was centrifuged at 100,000×g for 30 minutes and the pellet was resuspended in buffer containing 20 mM glycine-glycine, 1 mM MgCl2, 250 mM sucrose, pH 7.2, for storage at −80° C.
For the hSSTR1, 2 and 5 assays, membranes and various concentrations of test compounds were incubated in 96-well plates for 60 minutes at 25° C. with 0.05 nM [^125I-Tyr^11]-SRIF-14 (for hSSTR1; PerkinElmer Life Science), 0.05 nM [^125I-Tyr]-seglitide (for hSSTR2; PerkinElmer Life Science) or 0.05 nM [^125I-Tyr]-DPhe-cyclo(Cys-Tyr-DTrp-Lys-Val-Cys)-Thr-NH2 (for hSSTR5; PerkinElmer Life Science) in 50 mM HEPES, 0.2% BSA, 0.1 mM MgCl2, pH 7.5.
The incubations were terminated by rapid filtration through GF/C glass microfiber filter plates (pre-wet with 0.3% polyethyleneimine and 0.1% BSA) using a 96-well cell harvester (Brandel). Plates were washed six times with 1 mL/well aliquots of ice-cold buffer containing 50 mM Tris buffer, pH 7.7. Specific binding is defined as the total radioligand bound minus the bound in the presence of 1000 nM SRIF-14.

[3] = target: T2, hSSTR3 (Homo sapiens, UniProt P32745); assay: Somatostatin receptor radioligand binding assay, hSSTR3; settings: CHO-K1 cell membranes, [125I-Tyr11]-SRIF-14; read-out: hSSTR3 Ki (nM) ± SEM
T2 construct: expressed in transfected cells; membranes
T2 sequence (P32745 whole entry): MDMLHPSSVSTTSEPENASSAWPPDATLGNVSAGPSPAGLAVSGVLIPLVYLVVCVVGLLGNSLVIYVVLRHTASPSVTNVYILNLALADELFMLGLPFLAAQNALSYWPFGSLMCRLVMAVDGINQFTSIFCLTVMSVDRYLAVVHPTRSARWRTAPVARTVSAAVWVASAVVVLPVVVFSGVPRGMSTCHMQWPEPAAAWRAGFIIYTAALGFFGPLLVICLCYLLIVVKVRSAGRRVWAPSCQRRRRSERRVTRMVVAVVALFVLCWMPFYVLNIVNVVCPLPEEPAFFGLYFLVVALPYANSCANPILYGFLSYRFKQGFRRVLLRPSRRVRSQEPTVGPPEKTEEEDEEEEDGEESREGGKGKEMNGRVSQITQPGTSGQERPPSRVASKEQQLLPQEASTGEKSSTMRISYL
Procedure: as §1
as §2, with “C. […]” for “C.”

[4] = target: T3, hSSTR5 (Homo sapiens, UniProt P35346); assay: Somatostatin receptor radioligand binding assay, hSSTR5; settings: CHO-K1 cell membranes, [125I-Tyr]-DPhe-cyclo(Cys-Tyr-DTrp-Lys-Val-Cys)-Thr-NH2; read-out: hSSTR5 Ki (nM) ± SEM
T3 construct: expressed in transfected cells; membranes
T3 sequence (P35346 whole entry): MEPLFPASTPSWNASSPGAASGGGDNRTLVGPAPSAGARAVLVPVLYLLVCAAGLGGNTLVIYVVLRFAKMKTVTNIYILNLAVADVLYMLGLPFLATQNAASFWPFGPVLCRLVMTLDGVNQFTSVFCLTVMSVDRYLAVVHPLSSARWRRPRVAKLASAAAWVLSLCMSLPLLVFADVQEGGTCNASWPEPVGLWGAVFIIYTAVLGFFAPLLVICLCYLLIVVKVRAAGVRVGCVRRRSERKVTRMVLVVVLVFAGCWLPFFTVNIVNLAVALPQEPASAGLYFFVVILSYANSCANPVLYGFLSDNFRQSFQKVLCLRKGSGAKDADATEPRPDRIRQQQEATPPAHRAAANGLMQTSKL
Procedure: as §1
as §2, with “C. […]” for “C.”

[5] = target: T4, hSSTR1 (Homo sapiens, UniProt P30872); assay: Somatostatin receptor radioligand binding assay, hSSTR1; settings: CHO-K1 cell membranes, [125I-Tyr11]-SRIF-14; read-out: hSSTR1 Ki (nM) ± SEM
T4 construct: expressed in transfected cells; membranes
T4 sequence (P30872 whole entry): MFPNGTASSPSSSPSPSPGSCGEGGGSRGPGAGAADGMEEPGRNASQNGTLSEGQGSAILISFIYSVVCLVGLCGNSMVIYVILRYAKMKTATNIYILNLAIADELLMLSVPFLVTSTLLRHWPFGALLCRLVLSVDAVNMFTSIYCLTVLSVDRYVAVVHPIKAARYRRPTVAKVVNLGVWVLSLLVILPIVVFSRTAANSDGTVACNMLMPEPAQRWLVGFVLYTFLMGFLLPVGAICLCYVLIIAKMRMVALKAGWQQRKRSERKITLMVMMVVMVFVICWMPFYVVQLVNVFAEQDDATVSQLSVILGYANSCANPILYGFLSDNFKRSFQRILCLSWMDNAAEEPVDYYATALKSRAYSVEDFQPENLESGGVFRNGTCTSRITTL
Procedure: as §1
as §2, with “C. […]” for “C.”

[6] = target: T5, hSSTR4 (Homo sapiens, UniProt P31391); assay: Somatostatin receptor radioligand binding assay, hSSTR4; settings: CHO-K1 cell membranes, [125I-Tyr11]-SRIF-14; read-out: hSSTR4 Ki (nM) ± SEM
T5 construct: expressed in transfected cells; membranes
T5 sequence (P31391 whole entry): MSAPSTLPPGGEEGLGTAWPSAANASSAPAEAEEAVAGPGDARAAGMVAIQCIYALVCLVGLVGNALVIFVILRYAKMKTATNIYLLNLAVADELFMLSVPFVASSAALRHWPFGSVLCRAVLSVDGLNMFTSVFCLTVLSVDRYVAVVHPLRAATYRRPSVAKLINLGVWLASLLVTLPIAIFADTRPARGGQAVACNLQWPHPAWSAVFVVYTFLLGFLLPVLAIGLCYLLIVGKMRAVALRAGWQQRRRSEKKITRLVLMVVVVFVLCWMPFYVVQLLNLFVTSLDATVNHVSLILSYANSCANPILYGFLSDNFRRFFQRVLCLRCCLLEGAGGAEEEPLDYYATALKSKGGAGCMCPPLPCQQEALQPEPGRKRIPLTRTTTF
Procedure: as §1
as §2, with “C. […]” for “C.”

[7] = cells expressing hSSTR2, calcium mobilization, read-out: hSSTR2 EC50 (nM) ± SEM
[8] = CHO-K1 cell membranes, [125I-Tyr]-seglitide, read-out: hSSTR2 Ki (nM) ± SEM

| Ki [3] [nM] | Ki [4] [nM] | Ki [5] [nM] | EC50 [1, 7] [nM] | Ki [6] [nM] | Ki [2, 8] [nM] | SMILES | EC50 [1] [nM] | Emax [1] [%] | Ki [2] [nM] |
| --- | --- | --- | --- | --- | --- | --- | --- | --- | --- |
|  |  |  |  |  |  | C[C@@H](O)[C@@H]1NC(=O)[C@H](CCCCN)NC(=O)[C@@H](Cc2c[nH]c3ccccc23)NC(=O)[C@H](Cc2ccccc2)NC(=O)[C@H](Cc2ccccc2)NC(=O)[C@H](CCCNC(=N)N)NC(=O)[C@H](NC[C@H](Cc2ccc(O)cc2)NC(=O)CCc2cn(CC(=O)N[C@H](CN[C@@H]3CCCCNC(=O)[C@H](Cc4ccc(O)cc4)NC(=O)[C@H]([C@@H](C)O)NC(=O)[C@H](CCCCN)NC(=O)[C@@H](Cc4c[nH]c5ccccc45)NC(=O)[C@H](Cc4ccccc4)NC(=O)[C@H](Cc4ccccc4)NC(=O)[C@H](CCCNC(=N)N)NC3=O)Cc3ccc(O)cc3)nn2)CCCCNC(=O)[C@H](Cc2ccc(O)cc2)NC1=O [Compound 7, 1-[(ethan-2-oyl)-Tyr-psi(CH2NH)-cyclo(DLys-Arg-Phe-Phe-DTrp-Lys-Thr-Tyr)],4-[(propan-3-oyl)-Tyr-psi(CH2NH)-cyclo(DLys-Arg-Phe-Phe-DTrp-Lys-Thr-Tyr)]-1,2,3-triazole] | 28.5 ± 11.5 | 97.4 ± 1.2 | 0.17 |
|  |  |  |  |  |  | C[C@@H](O)[C@@H]1NC(=O)[C@H](CCCCN)NC(=O)[C@@H](Cc2c[nH]c3ccccc23)NC(=O)[C@H](Cc2ccncc2)NC(=O)[C@H](Cc2ccccc2)NC(=O)[C@H](CCCNC(=N)N)NC(=O)[C@H](NC[C@H](Cc2ccc(O)cc2)NC(=O)CCc2cn(CC(=O)N[C@H](CN[C@@H]3CCCCNC(=O)[C@H](Cc4ccccc4)NC(=O)[C@H]([C@@H](C)O)NC(=O)[C@H](CCCCN)NC(=O)[C@@H](Cc4c[nH]c5ccccc45)NC(=O)[C@H](Cc4ccncc4)NC(=O)[C@H](Cc4ccccc4)NC(=O)[C@H](CCCNC(=N)N)NC3=O)Cc3ccc(O)cc3)nn2)CCCCNC(=O)[C@H](Cc2ccccc2)NC1=O [Compound 5, 1-[(ethan-2-oyl)-Tyr-psi(CH2NH)-cyclo(DLys-Arg-Phe-4Pal-DTrp-Lys-Thr-Phe)],4-[(propan-3-oyl)-Tyr-psi(CH2NH)-cyclo(DLys-Arg-Phe-4Pal-DTrp-Lys-Thr-Phe)]-1,2,3-triazole] | 3.3 | 88.6 ± 1.1 | 0.08 |
| 5 | 0.32 | 271 ± 160 | 4.4 ± 3.7 | 112 ± 18.6 | 0.02 ± 0.02 | C[C@@H](O)[C@@H]1NC(=O)[C@H](CCCCN)NC(=O)[C@@H](Cc2c[nH]c3ccccc23)NC(=O)[C@H](Cc2ccncc2)NC(=O)[C@H](Cc2ccccc2)NC(=O)[C@H](CCCNC(=N)N)NC(=O)[C@H](NC[C@@H](N)Cc2ccc(O)cc2)CCCCNC(=O)[C@H](Cc2ccccc2)NC1=O [Compound 21, Tyr-psi(CH2NH)-cyclo(DLys-Arg-Phe-4Pal-DTrp-Lys-Thr-Phe)] |  | 103 ± 0.2 |  |
| 16.3 ± 7.1 | 0.31 ± 0.1 | > 1000 | 9.1 ± 3.9 | 76.3 ± 12.6 | 0.47 ± 0.03 | C[C@@H](O)[C@@H]1NC(=O)[C@H](CCCCN)NC(=O)[C@@H](Cc2c[nH]c3ccccc23)NC(=O)[C@H](Cc2ccncc2)NC(=O)[C@H](Cc2ccccc2)NC(=O)[C@H](CCCNC(=N)N)NC(=O)[C@H](N)CCCCNC(=O)[C@H](Cc2ccccc2)NC1=O [Compound 1, cyclo(DLys-Arg-Phe-4Pal-DTrp-Lys-Thr-Phe)] (HELM PEPTIDE1{[dK].R.F.[O=C([C@H](Cc1ccncc1)N[*:1])[*:2]].[dW].K.T.F}$PEPTIDE1,PEPTIDE1,1:R3-8:R2$$$V2.0) |  | 96.3 ± 5.5 |  |
|  |  |  |  |  |  | C[C@@H](O)[C@@H]1NC(=O)[C@H](CCCCN)NC(=O)[C@@H](Cc2c[nH]c3ccccc23)NC(=O)[C@H](Cc2ccccc2)NC(=O)[C@H](Cc2ccccc2)NC(=O)[C@H](CCCNC(=N)N)NC(=O)[C@H](NC[C@H](Cc2ccc(O)cc2)NC(=O)CCc2cn(CC(=O)N[C@H](CN[C@@H]3CCCCNC(=O)[C@H](Cc4ccc(F)cc4)NC(=O)[C@H]([C@@H](C)O)NC(=O)[C@H](CCCCN)NC(=O)[C@@H](Cc4c[nH]c5ccccc45)NC(=O)[C@H](Cc4ccccc4)NC(=O)[C@H](Cc4ccccc4)NC(=O)[C@H](CCCNC(=N)N)NC3=O)Cc3ccc(O)cc3)nn2)CCCCNC(=O)[C@H](Cc2ccc(F)cc2)NC1=O [Compound 6, 1-[(ethan-2-oyl)-Tyr-psi(CH2NH)-cyclo(DLys-Arg-Phe-Phe-DTrp-Lys-Thr-4FPhe)],4-[(propan-3-oyl)-Tyr-psi(CH2NH)-cyclo(DLys-Arg-Phe-Phe-DTrp-Lys-Thr-4FPhe)]-1,2,3-triazole] | 74.6 ± 15.6 | 93.6 ± 4.1 | 0.38 |
